Results on 88 compounds are retold here after a melting point compilation (Tetko et al.; mined from patent text by program, amines drawn as free bases though some values may be those of a salt).

One may read the melting point as the temperature of the solid-liquid transition.

On to `CC1(C)C(=O)NCCN1C(=O)C(Cc1ccccc1)N1C(=O)c2ccccc2C1=O` (stereo not drawn), for which the melting point was 221 to 223 °C.
As for `CC(Cc1ccc(F)cc1)(NC(=O)CN)c1ccc(F)cc1` (stereo not drawn), the figure is 130 to 131 °C; as for `CSCCC(NC(=O)Nc1cccc(C)c1)C(=O)O` (racemic), 143 °C; as for `COc1ccc(C(O)CNCCc2ccc(OC)c(OC)c2C)cc1` (stereo not drawn), 128 to 129 °C.
As for `OCC12OC1CC(OCc1ccccc1)C2COCc1ccccc1` (stereo not drawn), the figure is 60 to 62 °C; as for `Cn1nnc(COc2nn3c(-c4ccccc4)nnc3cc2-c2ccccc2)n1`, 228 to 233 °C; as for `Nc1ccc(C(c2cccc(N)c2)(C(F)(F)F)C(F)(F)F)cc1`, 142 to 143 °C.
The value for `COc1cc2c(c(OC)c1OC)C(=O)CC2` was 114 to 115 °C; that for `CCCc1nc2c(N)nc3ccccc3c2n1CC(C)(C)CC(C)=NOC` was 196 to 198 °C; that for `CN1CCC(c2cc(-c3ccncc3)c(-c3cccc(C(F)(F)F)c3)nn2)CC1` was 188 to 189 °C.
Consider `COc1ccc(COCc2ccc(OC)cc2)cc1`, for which the melting point lay in the range of 58 to 59 °C.
As for `NS(=O)(=O)c1cc(C2OCCO2)cs1`, the melting point is 225 to 227 °C.
The value for `CCCCCN1C(=O)C2(COc3cc4c(cc32)OCO4)c2c(Cl)ccc(Cl)c21` (stereo not drawn) was 106 to 108 °C; that for `CC(C)NC1=NS(=O)(=O)c2ccc(C(F)(F)F)cc2N1` was 294 to 297 °C.
The value for `O=C(COc1ccc(Cl)cc1)N[C@@H](Cc1ccccc1)C(=O)CSCc1ccco1` was 95 to 98 °C.
The value for `CCOC(=O)C(C)=CNc1ccc2ccccc2n1` was 164 to 165 °C; that for `Cc1ccnc(-n2ccnc2S(=O)Cc2ccccc2N(C)C)c1` (stereo not drawn) was 127 to 129 °C.
`CCCOc1ccc(OC)cc1C1=NC(=O)C2=NC=NC2=N1` showed a melting point of 233 to 234 °C.
As for `O=c1[nH]c2ncc(-c3ccc4cc[nH]c4c3)nc2n1CC1CCCCC1`, the figure is 359 to 363 °C; as for `COC(=O)c1cc(-c2ccc(SC)cc2)nn(CC(C)C)c1=O`, 90.4 to 91.4 °C; as for `CC(C)(C)NC(=O)N1CCn2c(Cl)c(-c3cccc(C#N)c3)c(C(N)=O)c2C1`, 192 to 195 °C.
As for `COc1nc2cc(Cl)c(Cl)c([N+](=O)[O-])c2nc1OC`, the figure is 184 to 186 °C; as for `COc1cccc(CNC(=O)c2cc3c(=O)n(CCC(=O)c4ccccc4)c(=O)n(C)c3s2)c1`, 188 to 191 °C.
The value for `CC(C)CCN1C(=O)C(NC(=O)Oc2ccccc2)C(=O)N(c2ccccc2)c2ccc(F)cc21` (stereo not drawn) was 160 to 165 °C.
`COC(=O)c1cc(N)nc(-c2ccc(Cl)c(F)c2F)n1` yielded a melting point of 192 to 195 °C.
On to `COc1ccc(CC(=O)Nc2nc3c(ncn3C3CC(O)C(COC(c4ccccc4)(c4ccc(OC)cc4)c4ccc(OC)cc4)O3)c(=O)[nH]2)cc1` (stereo not drawn), for which the melting point lay in the range of 148 to 156 °C.
The value for `O=[N+]([O-])c1ccc(Oc2c(Cl)cc(S(=O)(=O)NC(=NO)Nc3ccc(Cl)cc3)cc2Cl)c(Cl)c1` was 180 °C; that for `O=c1n(CCCCCl)nc2n1-c1ccccc1OC2` was 56 to 57 °C.
As for `CCOc1ccc(CCNC(=O)C(N)=O)cc1OCC`, the figure is 168 to 169 °C; as for `CCOC(=O)C1(C)C=C(O)c2c(sc3c2CCC2(C3)OCCO2)N1` (stereo not drawn), 94 to 95 °C.
As for `CCCCCCC(=Cc1ccccc1)C(O)Cc1nc(C)c(C)nc1C` (stereo not drawn), the figure is 61 to 62 °C.
In turn, `COc1ccc(NC(C)c2oc3ccc(F)cc3c(=O)c2-c2cccc(F)c2)cc1` (stereo not drawn) registered a melting point of 152 to 156 °C.
Compound `COC[C@H]1CCCN1NC(=O)c1ccc(-c2[nH]nc3c2C(=O)c2c(NC(=O)NN4CCOCC4)cccc2-3)s1` had a melting point of 266 to 267 °C.
As for `CN(C)CCCN1c2ccccc2C(c2ccccc2F)=Nc2cccnc21`, the figure is 92 to 94 °C; as for `O=C(O)COc1ccc(SCc2cc(-c3ccc(C(F)(F)F)cc3)on2)c2c1CCCO2`, 112 to 113 °C; as for `NC(=O)CCCCCc1cccc2cncn12`, 131 to 132 °C.
`CC(C)[C@H](C[C@H](O)[C@H](C)NC(=O)OC(C)(C)C)C(=O)NCc1cccnc1` had a melting point of 147 to 149 °C.
As for `C=CC[C@@H]1[C@H](O)[C@@H](O)C(=O)N1Cc1ccccc1` (relative stereo), the figure is 90 to 93 °C; as for `Nc1sc2c(c1C(=O)c1ccc(Cl)s1)CCN(Cc1ccccc1)C2`, 81 to 83 °C; as for `N=C(NO)c1nc2cnc3ccc(Cl)cc3c2n1-c1ccccc1Cl`, 265 to 267 °C.
As for `COc1c(C(C)=O)c(OC2SCC(O)C(O)C2O)c(OC)c2occc12` (stereo not drawn), the figure is 207 to 209 °C; as for `CN(CCC(=O)O)S(=O)(=O)c1c(Cl)cccc1Cl`, 115 °C.
As for `C=C1N(C)C(=O)OC12CCN(CC=C(c1ccccc1)c1ccccc1)CC2`, the melting point is 126 to 127 °C.
The value for `COc1ccc(Oc2cccc(C(F)(F)F)c2)c(C(=O)O)c1` was 124 °C; that for `Cn1ncnc1COc1nc2c(-c3ccccc3F)nncn2c1C1CCC1` was 120 °C; that for `CCOC(=O)c1sc2cc(CO)ccc2c1Sc1cccc(OC)c1` was 110 to 112 °C.
The value for `CC(C)=CCc1c(O)ccc(C(=O)C=Cc2ccccc2)c1O` was 131 to 132 °C; that for `CCOC(=O)c1cnc(Cl)cc1Cl` was 32 to 32.5 °C; that for `C#CCn1c(C(F)(F)F)nc2cc(F)c(-n3c(=O)cc(C(F)(F)F)n(C)c3=O)cc21` was 104 to 105 °C.
As for `Nc1ncc(-c2cccc3ccccc23)o1`, the figure is 155 to 162 °C; as for `CC(C)(C(=O)c1ccccc1)C(N)=S`, 172 to 175 °C; as for `Cc1ncncc1C(=O)Nc1ccc(-n2nc(C(F)(F)F)cc2C2CC2)nc1`, 159 to 160 °C.
Turning to `CCC1=Nc2ccc(OCCN3C(=O)c4ccccc4C3=O)cc2C(=O)C1`, the melting point lay in the range of 168 to 171 °C.
The compound `CCN(c1ccc(OC)cc1)S(=O)(=O)c1cccc(C(=O)Nc2ccc(C#N)cc2)c1` returned a melting point of 168 to 169 °C.
As for `CC(C)c1cc(C(C)C)c(S(=O)(=O)n2ccc3ccccc32)c(C(C)C)c1`, the figure is 131 to 133 °C; as for `CN(C)C(=O)C1CCc2c([nH]c3ccc(Cl)cc23)C1` (stereo not drawn), 176 to 177 °C.
As for `O=C(Nc1ccc(-n2nc(C(F)(F)F)cc2OC(F)F)cc1)c1ccccc1F`, the figure is 130 to 131 °C; as for `CC(C)c1ncc(CCCOc2nn(Cc3ccccc3)cc2CC(=O)O)c(Oc2ccc(Cl)cc2Cl)n1`, 98 to 99 °C.
The value for `CC(Oc1ncn(-c2cc(Cl)cc(Cl)c2)n1)C(=O)O` (stereo not drawn) was 230 to 231 °C; that for `COC(=S)c1ccc(-c2ccccc2)c(S(C)(=O)=O)c1` was 155 to 156 °C; that for `CCOC(=O)N1CCCc2cc(C(=O)CCCl)ccc21` was 78 to 79 °C.
On to `COCCCc1cc(Cl)cc2nc(Cc3ccccc3Cl)oc12`, for which the melting point fell in the range of 49 to 51 °C.
The value for `CN(CCC12CC3CC(CC(C3)C1)C2)C(=O)NCCCc1ccncc1` was 99 to 109 °C; that for `COCCCNC(=O)Nc1ccc(N(C)C)cc1C(=O)NCC1CCN(C(c2ccccc2)c2ccccc2)CC1` was 191 to 193 °C.
As for `OCC1CCC2=C(Cc3ccccc32)C1CN1CCCCC1CO` (stereo not drawn), the figure is 151 to 159 °C; as for `CN1CCC(=C2c3cc(Br)n(C)c3CCn3ccnc32)CC1`, 179 °C; as for `O=C(O)Cc1nn(C(c2ccccn2)c2ncno2)c(=O)c2ccccc12` (stereo not drawn), 196 to 200 °C.
The value for `COCCC(=O)N[C@H]1CC[C@H](CCN2CCN(c3nc(C)cc4c3CCO4)CC2)CC1` was 178 °C.
With `CSc1nnc(Cc2ccccc2S(N)(=O)=O)s1`, the melting point lay within 175 to 178 °C.
The value for `COC(=O)c1ccc(COc2ccc3cc(-c4ccc(-c5ccccc5)n4-c4ccccc4)ccc3c2)cc1` was 218 to 219 °C; that for `COC(=O)C(Cc1ccc(OCc2nc3ccc(OC)cc3n2C)cc1)NS(C)(=O)=O` (stereo not drawn) was 168 to 171 °C.
The value for `CC=CCn1c(C)c(C)c2cnnc(OCc3cc(F)cc(F)c3)c21` was 78 to 84 °C.
As for `O=C(N[C@@H](Cc1ccccc1)C(=O)Oc1cc(Cl)c(Cl)cc1Cl)OCc1ccccc1`, the figure is 139 to 140 °C.
For `Cc1ccnc2c(O)cccc12`, the melting point was 135 to 136 °C.
The value for `O=C(Nc1ccc2c(c1)CS(=O)(=O)N2)C(=O)N1CCC(Cc2ccccc2)CC1` was 181 to 182 °C; that for `c1cn2nc(SCCOC3CCCCO3)ccc2n1` (stereo not drawn) was 60 to 62 °C.
Regarding `O=c1nc(-c2c(-c3ccccc3)nn3ccccc23)cc[nH]1`, the melting point was in the range of 287 to 289 °C.
`O=C(c1ccc(-n2cccn2)cc1)N1Cc2cccn2Cc2ccccc21` yielded a melting point of 179 to 181 °C.
Consider `COc1ccccc1CNc1ccc2cc(Nc3nc(C)no3)ccc2n1`, for which the melting point was 175 °C.
As for `Cc1ncc(C(=O)N2CCCC2)s1`, the melting point was in the range of 71 to 72 °C.
Regarding `CC(C)(C)NS(=O)(=O)c1cnc(Cl)s1`, the melting point is 75 °C.
As for `CCOC(=O)c1c(C)cc2c(c1C)c(=O)n(-c1ccccc1Cl)c(=O)n2C(=O)O`, the figure is 182 to 183 °C; as for `COc1ccc2c(Br)c(C)sc2c1`, 80 to 81 °C; as for `CCC(CC)(COc1nn2nc(C)nc2cc1C)CS(N)(=O)=O`, 221 to 222 °C.
The value for `Cc1ccc(-c2c(NS(=O)(=O)c3ccc(C(C)(C)C)cc3)ncnc2OCCOc2ccc(N(C)C)cc2)cc1` was 142 to 145 °C; that for `O=C(c1ccc(Cl)cc1)C1CCN(S(=O)(=O)N2CCCC[C@@H]2C(=O)NO)CC1` was 84.4 to 86.4 °C; that for `CCc1c(N)c(C(N)=O)nn1Cc1cccnn1` was 177 to 185 °C.
The value for `CCCCCCCCCCCCCCCCCCC(COC(C)=O)(COC(C)=O)NC(C)=O` was 90 to 91 °C.
